The values that follow are results of earlier work, collected in patent US6491952B1, “Cholesterol lowering composition” (Triple Crown AB, priority 1998, dated 2002).

The conditions of the data set: daily intake; references 1-5.

In the case of `CC[C@H](CC[C@@H](C)[C@H]1CC[C@H]2[C@@H]3CC[C@H]4C[C@@H](O)CC[C@]4(C)[C@H]3CC[C@]12C)C(C)C` [β-sitostanol], the cholesterol lowering effect entry is given as “cholesterol lowering effect”.

`CC[C@H](CC[C@@H](C)[C@H]1CC[C@H]2[C@@H]3CC=C4C[C@@H](O)CC[C@]4(C)[C@H]3CC[C@]12C)C(C)C` [β-sitosterol]: the cholesterol lowering effect entry was “cholesterol lowering effect”.
